Measured values: BigSolDB 2.1

NC(=O)CS(=O)C(c1ccccc1)c1ccccc1 (stereo not given)
Conditions	solubility (mole fraction)
in 2-butanone, 281 K	0.00114
in 2-butanone, 304.7 K	0.00253
in 2-butanone, 307.3 K	0.00278
in 2-butanone, 314.1 K	0.00354
in 2-butanone, 317.8 K	0.00401
in 2-butanone, 319.6 K	0.00429
in 2-butanone, 329.4 K	0.0059
in 2-butanone, 332.8 K	0.00661
in DMF, 280.7 K	0.0552
in DMF, 283.3 K	0.0579
in DMF, 290.8 K	0.0656
in DMF, 293.6 K	0.0702
in DMF, 300.1 K	0.0784
in DMF, 311.5 K	0.0926
in DMF, 318 K	0.103
in DMF, 320.4 K	0.108
in acetone, 278.2 K	0.00141
in acetone, 284 K	0.00175
in acetone, 290.4 K	0.0021
in acetone, 294.1 K	0.00239
in acetone, 303.2 K	0.00321
in acetone, 307.5 K	0.00371
in acetone, 311.8 K	0.00426
in acetone, 320.2 K	0.0057
in acetonitrile, 286.3 K	0.000684
in acetonitrile, 293.1 K	0.000981
in acetonitrile, 297.9 K	0.00132
in acetonitrile, 301.4 K	0.00163
in acetonitrile, 304.4 K	0.00195
in acetonitrile, 311.1 K	0.00292
in acetonitrile, 322 K	0.00578
in acetonitrile, 326.4 K	0.00729
in ethanol, 280.6 K	0.000668
in ethanol, 285.2 K	0.000755
in ethanol, 288.4 K	0.000917
in ethanol, 294.2 K	0.00111
in ethanol, 304.2 K	0.00167
in ethanol, 313.7 K	0.00253
in ethanol, 322.8 K	0.00377
in ethanol, 330 K	0.00527
in ethyl acetate, 273.2 K	0.00046
in ethyl acetate, 288 K	0.000602
in ethyl acetate, 291.9 K	0.000709
in ethyl acetate, 298 K	0.000844
in ethyl acetate, 303.5 K	0.001
in ethyl acetate, 312.3 K	0.00141
in ethyl acetate, 322.2 K	0.002
in ethyl acetate, 328.3 K	0.00255
in isopropanol, 283.2 K	0.000603
in isopropanol, 287.9 K	0.00086
in isopropanol, 295.8 K	0.00106
in isopropanol, 299.8 K	0.00129
in isopropanol, 308.5 K	0.00193
in isopropanol, 317.6 K	0.00291
in isopropanol, 323.5 K	0.00388
in isopropanol, 331.5 K	0.00607
in methanol, 277.9 K	0.00189
in methanol, 289 K	0.0028
in methanol, 297.5 K	0.00394
in methanol, 301.8 K	0.00459
in methanol, 308.4 K	0.0059
in methanol, 314 K	0.00744
in methanol, 318.2 K	0.00891
in methanol, 319.7 K	0.00945
in n-propanol, 284.5 K	0.001
in n-propanol, 291.9 K	0.00131
in n-propanol, 299 K	0.00184
in n-propanol, 300.4 K	0.00195
in n-propanol, 314.3 K	0.00362
in n-propanol, 316.9 K	0.00411
in n-propanol, 319.9 K	0.00475
in n-propanol, 324.8 K	0.00585
in water, 290.7 K	5.4e-05
in water, 297.5 K	8.1e-05
in water, 300.5 K	8.8e-05
in water, 301.7 K	0.000103
in water, 309.5 K	0.00013
in water, 312.9 K	0.000177
in water, 320.8 K	0.000242
in water, 323.4 K	0.000281
